# Structures can show the parent of a compound that is named as a salt.
# Legend:
# [1] = biological target: Human MET (residues 956-1390) (Homo sapiens (Human), UniProt P08581); assay: Human Met kinase assay, HTRF KinEase (Example D-2); type: biochemical; details: protocol of Example D-2 (other compounds); read-out: c-Met IC50
# Method in brief: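 HTRF KinEase assay on MET residues 956-1390 (0.1 ng/well) in buffer with 5 mM MgCl2, 1 mM DTT and 1 mM MnCl2, with biotinylated peptide substrate, ATP at Km, 10 compound concentrations and 3% DMSO final, run 40 min at room temperature. The […] signal was normalized to DMSO and to 1 μM reference compound, and IC50 came from a 4-parameter logistic fit.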
# [2] = biological target: KDR (phospho-KDR, VEGF165-stimulated HUVEC cells) (Homo sapiens (Human), UniProt P35968); assay: KDR autophosphorylation ELISA in HUVEC cells (Example G); type: cell-based; details: cellular activity; KDR autophosphorylation ELISA in HUVEC cells
# Chain of KDR (phospho-KDR, VEGF165-stimulated HUVEC cells) (P35968 20-1356): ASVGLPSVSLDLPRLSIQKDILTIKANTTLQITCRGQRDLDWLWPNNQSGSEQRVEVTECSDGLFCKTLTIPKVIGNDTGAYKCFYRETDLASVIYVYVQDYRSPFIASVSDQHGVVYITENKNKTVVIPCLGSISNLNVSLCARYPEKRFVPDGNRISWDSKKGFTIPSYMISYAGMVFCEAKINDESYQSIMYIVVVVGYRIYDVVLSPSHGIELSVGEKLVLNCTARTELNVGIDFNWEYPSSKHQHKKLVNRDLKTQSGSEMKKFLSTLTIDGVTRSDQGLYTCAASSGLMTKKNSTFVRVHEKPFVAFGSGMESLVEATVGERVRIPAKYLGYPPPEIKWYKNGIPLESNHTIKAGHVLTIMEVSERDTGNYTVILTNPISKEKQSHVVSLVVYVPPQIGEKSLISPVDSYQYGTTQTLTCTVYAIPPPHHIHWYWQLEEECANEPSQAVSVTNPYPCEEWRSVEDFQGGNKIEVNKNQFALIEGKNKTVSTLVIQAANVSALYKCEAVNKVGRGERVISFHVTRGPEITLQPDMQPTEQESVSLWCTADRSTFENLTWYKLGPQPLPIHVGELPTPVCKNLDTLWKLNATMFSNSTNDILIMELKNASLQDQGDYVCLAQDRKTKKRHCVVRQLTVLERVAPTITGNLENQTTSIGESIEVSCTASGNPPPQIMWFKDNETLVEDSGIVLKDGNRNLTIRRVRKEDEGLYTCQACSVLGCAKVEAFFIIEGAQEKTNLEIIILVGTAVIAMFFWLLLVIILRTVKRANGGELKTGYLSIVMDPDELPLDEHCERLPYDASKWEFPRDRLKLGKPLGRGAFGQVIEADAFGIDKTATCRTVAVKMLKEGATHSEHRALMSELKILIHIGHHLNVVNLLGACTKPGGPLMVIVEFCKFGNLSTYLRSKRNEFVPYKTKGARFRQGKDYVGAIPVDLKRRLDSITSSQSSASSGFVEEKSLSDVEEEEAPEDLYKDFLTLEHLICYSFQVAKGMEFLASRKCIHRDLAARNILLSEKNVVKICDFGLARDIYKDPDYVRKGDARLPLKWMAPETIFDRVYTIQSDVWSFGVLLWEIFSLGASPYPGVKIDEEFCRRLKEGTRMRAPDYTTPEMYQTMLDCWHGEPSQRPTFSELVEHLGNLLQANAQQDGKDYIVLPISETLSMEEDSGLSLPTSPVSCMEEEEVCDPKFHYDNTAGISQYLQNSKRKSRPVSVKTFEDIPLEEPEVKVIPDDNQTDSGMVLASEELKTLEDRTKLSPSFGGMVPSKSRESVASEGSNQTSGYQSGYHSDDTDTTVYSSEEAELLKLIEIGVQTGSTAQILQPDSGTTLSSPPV
# Method in brief: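 Cells seeded, grown 24 h at 37 °C, starved 24 h serum-free; cpd 8-pt curve, 0.3% DMSO, 1 h; VEGF165 100 ng/mL, 5 min; cold PBS wash, lysis with orthovanadate and protease/phosphatase inhibitors; pKDR ELISA; IC50 by 4-parameter logistic regression.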
# [3] = biological target: Human KDR (residues 790-1356) (Homo sapiens (Human), UniProt P35968); assay: Human KDR kinase assay, HTRF KinEase (Example B-2); type: biochemical; details: protocol of Example B-2 (other compounds)
# Chain of Human KDR (residues 790-1356) (P35968 790-1356): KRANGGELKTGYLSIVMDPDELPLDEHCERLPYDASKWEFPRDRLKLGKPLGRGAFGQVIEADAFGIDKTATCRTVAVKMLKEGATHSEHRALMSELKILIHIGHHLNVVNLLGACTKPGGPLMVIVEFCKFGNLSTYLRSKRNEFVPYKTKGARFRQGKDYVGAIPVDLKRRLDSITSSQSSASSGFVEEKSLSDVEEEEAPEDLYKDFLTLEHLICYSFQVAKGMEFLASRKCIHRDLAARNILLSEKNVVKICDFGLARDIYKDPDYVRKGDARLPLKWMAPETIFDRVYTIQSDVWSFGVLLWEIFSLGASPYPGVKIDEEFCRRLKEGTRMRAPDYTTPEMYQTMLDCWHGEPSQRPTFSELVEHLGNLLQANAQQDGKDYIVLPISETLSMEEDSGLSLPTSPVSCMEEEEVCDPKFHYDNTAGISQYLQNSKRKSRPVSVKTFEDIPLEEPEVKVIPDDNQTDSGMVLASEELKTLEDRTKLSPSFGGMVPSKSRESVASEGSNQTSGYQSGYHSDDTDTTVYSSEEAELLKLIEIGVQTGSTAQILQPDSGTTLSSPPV
# Method in brief: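 Human KDR residues 790-1356 (0.1 ng/well) in buffer with 5 mM MgCl2, 1 mM MnCl2, 1 mM DTT, biotinylated peptide substrate, ATP at Km (4.0 μM), 3% DMSO, 10 compound concentrations; 40 min, room temperature. EDTA stop, streptavidin-XL665/Eu-TK antibody HTRF read 665/620 nm; 4-parameter IC50.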
# [4] = biological target: Human MER (residues 528-999) (Homo sapiens (Human), UniProt Q12866); assay: Human Mer kinase assay, HTRF KinEase (Example C-2); type: biochemical; details: protocol of Example C-2 (other compounds)
# Chain of Human MER (residues 528-999) (Q12866 528-999): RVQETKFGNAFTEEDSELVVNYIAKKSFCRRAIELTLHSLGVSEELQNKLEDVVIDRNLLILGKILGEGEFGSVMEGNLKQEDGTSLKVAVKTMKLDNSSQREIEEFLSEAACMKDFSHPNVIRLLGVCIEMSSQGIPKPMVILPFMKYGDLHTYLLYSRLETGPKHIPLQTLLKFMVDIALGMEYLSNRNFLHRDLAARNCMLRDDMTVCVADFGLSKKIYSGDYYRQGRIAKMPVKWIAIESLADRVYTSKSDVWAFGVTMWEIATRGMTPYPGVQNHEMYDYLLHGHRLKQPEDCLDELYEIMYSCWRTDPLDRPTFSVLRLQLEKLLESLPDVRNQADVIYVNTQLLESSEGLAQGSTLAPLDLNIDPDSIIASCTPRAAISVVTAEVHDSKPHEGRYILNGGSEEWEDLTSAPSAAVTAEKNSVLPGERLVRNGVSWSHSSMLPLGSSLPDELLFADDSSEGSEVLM
# Method in brief: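 HTRF KinEase TK assay with MER 528-999 (1 ng/well) in enzymatic buffer plus 5 mM MgCl2 and 1 mM DTT, biotinylated peptide substrate and ATP at Km (40 μM), 3% DMSO final, 60 min at room temperature. Stopped with EDTA detection mix (SA-XL665, TK antibody-Eu3+), read at 665/620 nm after 60 min; IC50 from 10-point 4-parameter fit, normalized to DMSO and 1 μM reference.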
# Chain of Human MET (residues 956-1390) (P08581 956-1390): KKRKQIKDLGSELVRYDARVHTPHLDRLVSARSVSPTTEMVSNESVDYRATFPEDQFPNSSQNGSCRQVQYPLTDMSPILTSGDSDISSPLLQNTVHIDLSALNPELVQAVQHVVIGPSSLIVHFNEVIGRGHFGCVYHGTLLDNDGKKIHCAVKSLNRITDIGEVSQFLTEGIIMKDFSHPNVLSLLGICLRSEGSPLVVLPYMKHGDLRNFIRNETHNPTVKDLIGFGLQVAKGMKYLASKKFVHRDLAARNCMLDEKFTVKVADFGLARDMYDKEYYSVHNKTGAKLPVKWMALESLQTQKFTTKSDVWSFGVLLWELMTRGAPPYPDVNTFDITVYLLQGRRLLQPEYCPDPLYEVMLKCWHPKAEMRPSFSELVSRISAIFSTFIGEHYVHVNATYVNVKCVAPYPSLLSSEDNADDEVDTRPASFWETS
IC50 [1],IC50 [2],IC50 [3],IC50 [4],Structure (SMILES)
< 100 nM,< 100 nM,< 100 nM,< 100 nM,"COc1cc2nccc(Oc3ccc(NC(=O)c4cnc(C)c(-c5ccc(F)cc5)c4O)cc3F)c2nc1OC [Compound 28, N-[4-[(6,7-Dimethoxy-1,5-naphthyridin-4-yl)oxy]-3-fluorophenyl]-5-(4-fluorophenyl)-4-hydroxy-6-methylpyridine-3-carboxamide]"
< 100 nM,100 to 300 nM,< 100 nM,< 100 nM,"COc1cc2nccc(Oc3ccc(NC(=O)c4cn(C(C)C)c(C)c(-c5ccccc5)c4=O)cc3F)c2nc1OC [Compound 29, N-[4-[(6,7-Dimethoxy-1,5-naphthyridin-4-yl)oxy]-3-fluorophenyl]-6-methyl-4-oxo-5-phenyl-1-propan-2-ylpyridine-3-carboxamide hydrochloride]"
< 100 nM,< 100 nM,< 100 nM,< 100 nM,"COc1cc2nccc(Oc3ccc(NC(=O)c4cnc(C)c(-c5ccc(F)cc5)c4O)cc3)c2nc1OC [Compound 119, N-[4-[(6,7-Dimethoxy-1,5-naphthyridin-4-yl)oxy]phenyl]-5-(4-fluorophenyl)-4-hydroxy-6-methylpyridine-3-carboxamide]"
< 100 nM,< 100 nM,< 100 nM,< 100 nM,"COc1cnc2c(Oc3ccc(NC(=O)c4cncc(-c5ccc(F)cc5)c4O)cc3F)ccnc2c1 [Compound 120, N-[3-Fluoro-4-[(7-methoxy-1,5-naphthyridin-4-yl)oxy]phenyl]-5-(4-fluorophenyl)-4-hydroxypyridine-3-carboxamide]"
< 100 nM,> 300 nM,> 300 nM,< 100 nM,"COc1cnc2c(Oc3ccc(NC(=O)c4cn(C(C)C)c(C)c(-c5ccc(F)cc5)c4=O)cc3F)ccnc2c1 [Compound 121, N-[3-Fluoro-4-[(7-methoxy-1,5-naphthyridin-4-yl)oxy]phenyl]-5-(4-fluorophenyl)-6-methyl-4-oxo-1-propan-2-ylpyridine-3-carboxamide]"
< 100 nM,100 to 300 nM,< 100 nM,< 100 nM,"COc1cc2nccc(Oc3ccc(NC(=O)c4cn(C(C)C)cc(-c5ccc(F)cc5)c4=O)cc3)c2nc1OC [Compound 122, N-[4-[(6,7-Dimethoxy-1,5-naphthyridin-4-yl)oxy]phenyl]-5-(4-fluorophenyl)-4-oxo-1-propan-2-ylpyridine-3-carboxamide]"
< 100 nM,> 300 nM,> 300 nM,< 100 nM,"COc1cnc2c(Oc3ccc(NC(=O)c4cn(C(C)C)cc(-c5ccc(F)cc5)c4=O)cc3F)ccnc2c1 [Compound 123, N-[3-Fluoro-4-[(7-methoxy-1,5-naphthyridin-4-yl)oxy]phenyl]-5-(4-fluorophenyl)-4-oxo-1-propan-2-ylpyridine-3-carboxamide]"
< 100 nM,> 300 nM,> 300 nM,< 100 nM,"COc1cc2nccc(Oc3ccc(NC(=O)c4cn(-c5cccnc5)cc(-c5ccc(F)cc5)c4=O)cc3F)c2nc1OC [Compound 125, N-[4-[(6,7-Dimethoxy-1,5-naphthyridin-4-yl)oxy]-3-fluorophenyl]-5-(4-fluorophenyl)-4-oxo-1-pyridin-3-ylpyridine-3-carboxamide]"
< 100 nM,< 100 nM,< 100 nM,< 100 nM,"COc1cc2nccc(Oc3ccc(NC(=O)c4cn(OC)cc(-c5ccc(F)cc5)c4=O)cc3F)c2nc1OC [Compound 126, N-[4-[(6,7-Dimethoxy-1,5-naphthyridin-4-yl)oxy]-3-fluorophenyl]-5-(4-fluorophenyl)-1-methoxy-4-oxopyridine-3-carboxamide]"
< 100 nM,< 100 nM,< 100 nM,< 100 nM,"COc1cc2nccc(Oc3ccc(NC(=O)c4cn(OC)cc(-c5ccc(F)cc5)c4=O)cc3)c2nc1OC [Compound 127, N-[4-[(6,7-Dimethoxy-1,5-naphthyridin-4-yl)oxy]phenyl]-5-(4-fluorophenyl)-1-methoxy-4-oxopyridine-3-carboxamide]"
< 100 nM,< 100 nM,100 to 300 nM,< 100 nM,"COc1cnc2c(Oc3ccc(NC(=O)c4cn(OC)cc(-c5ccc(F)cc5)c4=O)cc3F)ccnc2c1 [Compound 128, N-[3-Fluoro-4-[(7-methoxy-1,5-naphthyridin-4-yl)oxy]phenyl]-5-(4-fluorophenyl)-1-methoxy-4-oxopyridine-3-carboxamide]"
< 100 nM,< 100 nM,< 100 nM,< 100 nM,"COc1nc2c(Oc3ccc(NC(=O)c4cncc(-c5ccc(F)cc5)c4O)cc3F)ccnc2cc1Br [Compound 129, N-[4-[(7-Bromo-6-methoxy-1,5-naphthyridin-4-yl)oxy]-3-fluorophenyl]-5-(4-fluorophenyl)-4-hydroxypyridine-3-carboxamide]"
< 100 nM,< 100 nM,< 100 nM,< 100 nM,"COc1nc2c(Oc3ccc(NC(=O)c4cnc(C)c(-c5ccc(F)cc5)c4O)cc3F)ccnc2cc1Br [Compound 130, N-[4-[(7-Bromo-6-methoxy-1,5-naphthyridin-4-yl)oxy]-3-fluorophenyl]-5-(4-fluorophenyl)-4-hydroxy-6-methylpyridine-3-carboxamide]"
< 100 nM,> 300 nM,> 300 nM,< 100 nM,"COc1nc2c(Oc3ccc(NC(=O)c4cn(C(C)C)cc(-c5ccc(F)cc5)c4=O)cc3F)ccnc2cc1Br [Compound 131, N-[4-[(7-Bromo-6-methoxy-1,5-naphthyridin-4-yl)oxy]-3-fluorophenyl]-5-(4-fluorophenyl)-4-oxo-1-propan-2-ylpyridine-3-carboxamide]"
< 100 nM,100 to 300 nM,100 to 300 nM,< 100 nM,"COc1nc2c(Oc3ccc(NC(=O)c4cn(C(C)C)c(C)c(-c5ccc(F)cc5)c4=O)cc3F)ccnc2cc1Br [Compound 132, N-[4-[(7-Bromo-6-methoxy-1,5-naphthyridin-4-yl)oxy]-3-fluorophenyl]-5-(4-fluorophenyl)-6-methyl-4-oxo-1-propan-2-ylpyridine-3-carboxamide]"
< 100 nM,100 to 300 nM,> 300 nM,100 to 300 nM,"COC(=O)c1cnc2c(Oc3ccc(NC(=O)c4cnc(C)c(-c5ccc(F)cc5)c4O)cc3F)ccnc2c1 [Compound 138, Methyl 8-[2-fluoro-4-[[5-(4-fluorophenyl)-4-hydroxy-6-methylpyridine-3-carbonyl]amino]phenoxy]-1,5-naphthyridine-3-carboxylate]"
< 100 nM,> 300 nM,> 300 nM,< 100 nM,"COc1cc2nccc(Oc3ccc(NC(=O)c4cn(C(C)(C)C)c(C)c(-c5ccc(F)cc5)c4=O)cc3F)c2nc1OC [Compound 139, 1-tert-Butyl-N-[4-[(6,7-dimethoxy-1,5-naphthyridin-4-yl)oxy]-3-fluorophenyl]-5-(4-fluorophenyl)-6-methyl-4-oxopyridine-3-carboxamide]"
< 100 nM,> 300 nM,> 300 nM,< 100 nM,"COc1cc2nccc(Oc3ccc(NC(=O)c4cn(-c5cnn(C)c5)c(C)c(-c5ccc(F)cc5)c4=O)cc3F)c2nc1OC [Compound 140, N-[4-[(6,7-Dimethoxy-1,5-naphthyridin-4-yl)oxy]-3-fluorophenyl]-5-(4-fluorophenyl)-6-methyl-1-(1-methylpyrazol-4-yl)-4-oxopyridine-3-carboxamide]"
< 100 nM,< 100 nM,< 100 nM,< 100 nM,"COc1cc2nccc(Oc3ccc(NC(=O)c4cnc(C)c(-c5ccc(F)cc5)c4O)cc3F)c2nc1Br [Compound 142, N-[4-[(6-Bromo-7-methoxy-1,5-naphthyridin-4-yl)oxy]-3-fluorophenyl]-5-(4-fluorophenyl)-4-hydroxy-6-methylpyridine-3-carboxamide]"
< 100 nM,100 to 300 nM,> 300 nM,< 100 nM,"COc1cc2nccc(Oc3ccc(NC(=O)c4cn(C(C)C)c(C)c(-c5ccc(F)cc5)c4=O)cc3F)c2nc1Br [Compound 143, N-[4-[(6-Bromo-7-methoxy-1,5-naphthyridin-4-yl)oxy]-3-fluorophenyl]-5-(4-fluorophenyl)-6-methyl-4-oxo-1-propan-2-ylpyridine-3-carboxamide]"

# Source: patent publication US12371428B2 (Exelixis, Inc., priority 2019, dated 2025)
